Some results are limits rather than exact numbers.

What is called melting point is the temperature, or range, at which the solid turns liquid. With `O=C(CBr)c1ccc2nnnn2c1`, the melting point was in the range of 108 to 110 °C.

`N#Cc1cccc(NC(=O)c2ccn(-c3ccc(Cl)cc3)c2)c1N1CCC(N2CCOCC2)CC1` returned a melting point of 220 °C.

Consider `N#CCC(O)(c1ccc(Br)cc1)c1cccnc1` (stereo not given), for which the melting point lay in the range of 158 to 161 °C.

For `CCOc1ccc2c(c1)n(C1CCCCC1)c(=O)n2S(=O)(=O)c1ccc(C(=O)NC(C)(C)CC(C)(C)C)cc1OC`, the melting point turned out to be 180 °C.

As for `CC(C)(C)C(=O)Oc1ccc2nc(S(N)(=O)=O)sc2c1`, the melting point was 167 °C.

`CCOc1ccc2c(c1)n(CCN(C(C)C)C(C)C)c(=O)n2S(=O)(=O)c1ccc(OC)cc1OC` displayed a melting point of 132 °C.

For `N#CCN1C(=O)CC=C(C2(c3ccccc3)C=C3C=CC=CN3N2)N1C1=CCCCC1` (stereo not given), the melting point lay in the range of 74 to 76 °C.

For the molecule `CC(C)[Si](C#Cc1ccc2c(c1)c1cccc3c1c2c1cccc2c4cc(C#C[Si](C(C)C)(C(C)C)C(C)C)ccc4c3c21)(C(C)C)C(C)C`, the melting point is above 300 °C.

`CCOC(=O)C(C)=Cc1ccc2cc[nH]c2c1` displayed a melting point of 88 to 91 °C.

Molecule `CCN(CC)C(=O)c1ccc(C)c(-c2nc(S(C)(=O)=O)nc3c2CNC(=O)N3c2c(F)cccc2F)c1` had a melting point of 132 to 135 °C.

Regarding `Clc1cc2c(cc1CN1CCN(CCOc3ccccc3)CC1)OCO2`, the melting point was in the range of 72 to 76 °C.

In turn, `CN1CCN(c2nccc(Oc3ccc(NC(=O)c4cc(F)cc(N5CCOCC5)c4)c4ccccc34)n2)CC1` gave a melting point of 195 to 197 °C.

Molecule `Clc1cc(CCc2ccccn2)c2oc(-c3cnccn3)nc2c1` displayed a melting point of 160 to 161 °C.

`O=C1C(=c2[nH]c(=c3[nH]c(=C4C(=O)N(c5ccccc5)C(=O)N(c5ccccc5)C4=O)c4ccccc34)c3ccccc23)C(=O)N(c2ccccc2)C(=O)N1c1ccccc1` returned a melting point above 300 °C.

`CCCCC(O)(COc1ccc(C(=O)O)c(O)c1)c1ccc2c(c1)C(C)(C)CCC2(C)C` (stereo not given) returned a melting point of 142 to 143 °C.

`O=C(O)Cn1c(-c2ccc(Cl)cc2)nc2ccc(Cl)nc21` displayed a melting point above 250 °C.

`COS(=O)(=O)CS(C)(=O)=O` gave a melting point of 101 to 104 °C.

In turn, `CCOC(=O)C(=O)Nc1c([N+](=O)[O-])sc2c(F)cccc12` yielded a melting point of 148 to 151 °C.

`Cc1ccccc1C(=O)Nc1ccc(-n2nc(C(F)(F)F)cc2C(F)(F)F)cc1` displayed a melting point of 165 to 167 °C.

`O=c1nc(-c2cccc(SCCCc3ccccc3)n2)sc2ccccc12` gave a melting point of 192 to 194 °C.

Turning to `Cc1ccc(COC(=O)CCC2CCC(=O)N2)cc1` (stereo not given), the melting point fell in the range of 71 to 72 °C.

`Clc1ccc(Oc2cncc3sccc23)cc1`: the melting point fell in the range of 87 to 89 °C.

Consider `COc1ccc(N(C(=O)CN2C(=O)C(Cc3cc(C)n[nH]3)C(=O)N(c3ccccc3)c3ccccc32)C(C)C)cc1` (stereo not given), for which the melting point is 156 to 159 °C.

Molecule `COc1cc(F)ccc1C(=O)Nc1cc(-c2c(-c3ccc(F)c(C)c3)nc3cccnn23)ccn1` yielded a melting point of 251 to 252 °C.

For the molecule `C1=c2ccccc2=NCO1`, the melting point is 247 to 249 °C.

`CCOC(=O)C1=Cc2cccc(C(N)=O)c2OCC1` returned a melting point of 120 to 125 °C.

Regarding `CCC(=O)N[C@H]1CC[C@H](CCN2CCN(c3nccc4ccoc34)CC2)CC1`, the melting point was 188 °C.

Molecule `O=[N+]([O-])c1cccc(NN=C(c2ccc(O)cc2)c2ccc(O)cc2)c1` came in with a melting point of 160 to 162 °C.

Turning to `COc1cccc(-c2nc(N)ncc2-c2ccc(=O)[nH]n2)c1`, the melting point worked out at 134 °C.

Turning to `CC(C)Cc1c2c(nn1Cc1ccccc1)c(N)nc1ncccc12`, the melting point lay within 232 to 235 °C.

`O=S(=O)(Nc1cccnc1Nc1ccccc1)c1ccccc1` had a melting point of 148 to 150 °C.

As for `O=c1[nH]c2ccccc2n1CCCN1CCN(c2n[nH]c3cc(F)ccc23)CC1`, the melting point fell in the range of 236 to 238 °C.

Regarding `CNC(=O)Nc1ccc(-c2ccncc2)c(C)n1`, the melting point was 213 to 214 °C.

The molecule `O=C(Nc1nc2ccccc2s1)c1ccccc1C(c1ccc(O)cc1)c1ccc(O)cc1` gave a melting point of 140 to 141 °C.

The molecule `COC(=O)C(C)=CC=P(c1ccccc1)(c1ccccc1)c1ccccc1` yielded a melting point of 145 to 150 °C.

Regarding `CN(Cc1ccccc1)Cc1nc(-c2ncn3c2CN(C)C(=O)c2cc(F)ccc2-3)no1`, the melting point was 161 to 162 °C.

`CC(=O)c1cc2c(Br)cccc2n1S(=O)(=O)c1ccccc1`: the melting point lay within 142 to 146 °C.

For the molecule `CCOC(=O)C1=C(C)NC(C)=C(C(=O)OCC)C1c1cccc(Cl)c1Cl`, the melting point lay within 125 to 126 °C.

The molecule `CC(=O)OCC1OC(n2ccc(=O)[nH]c2=O)C(Br)C1OC(C)=O` (stereo not given) gave a melting point of 69 to 77 °C.

The molecule `Nc1cc(C(=O)OCCN2CCCCC2)c2oc(-c3ccccc3)cc2c1` had a melting point of 126 to 128 °C.

Regarding `CC(C)CC(NC(=O)COc1cccc2ccccc12)C(=O)NC(Cc1ccccc1)C(=O)CSCc1ccco1` (stereo not given), the melting point lay within 118 to 120 °C.

On to `CCc1c(C(=O)NNC(=O)C(O)c2cc(F)cc(F)c2)ccc(OC)c1C` (stereo not given), for which the melting point worked out at 197 °C.

With `O=c1c(=NO)c2ccccc2oc2cc(F)ccc12`, the melting point fell in the range of 196 to 198 °C.

For `CC1(C)C2CCC3(C)C(C2)C(=O)CCC13O` (stereo not given), the melting point lay in the range of 120 to 123 °C.

`O=c1ccc2c(-c3ccncc3)nccc2[nH]1` yielded a melting point above 300 °C.

Molecule `Nc1nc(-n2cc(C(=O)O)c(=O)c3cc(F)c(F)c(Cl)c32)c(Cl)cc1F` displayed a melting point of 280 °C.

`CCOC(=O)N1CCN(c2ccc(N3CC(CNC(C)=O)OC3=O)cc2F)CC1` (stereo not given) returned a melting point of 224 to 226 °C.

For the molecule `COC(=O)c1ccccc1C(=O)NC(C)(C)C#N`, the melting point is 100 to 101 °C.

In the case of `Cc1c(OCC(=O)O)ccc(-c2noc3ccccc23)c1C`, the melting point was 146 to 152 °C.

In turn, `CCOC(=O)CN1C(=O)C(NC(=O)OCc2ccccc2)N=C(c2ccccc2)c2ccccc21` (stereo not given) yielded a melting point of 65 to 66 °C.

In turn, `O=C1NC(=O)C(=Cc2ccc(OCc3cccc(Cl)c3)cc2)S1` gave a melting point of 182 to 183 °C.

Molecule `COc1ccc(C(CCCCCCC(=O)O)=NOCc2ccc(OCc3nc(-c4ccccc4)oc3C)cc2)cc1` yielded a melting point of 69 to 70 °C.

Molecule `CCOC(=O)C(=CNc1ccc(C2=NNC(=O)CC2)cc1)C(=O)OCC` came in with a melting point of 164 °C.

The molecule `CCc1nnc(CCCOc2c(C)cc(-c3noc(C(F)F)n3)cc2C)s1` showed a melting point of 83 to 84 °C.

The molecule `ClCCN1CCC(=C(c2ccccc2)c2ccccc2)CC1` came in with a melting point of 85 to 86 °C.

`c1cc2ccc3occc3c2[nH]1` displayed a melting point of 141 to 144 °C.

On to `CCOC(=O)/C=C/c1cn(-c2ccc(C(F)(F)F)cn2)nc1C(C)C`, for which the melting point was 112 to 113 °C.

In turn, `CC(=O)N[C@@H](CSC(=O)[C@@H](C)c1ccc(CC(C)C)cc1)C(=O)O` returned a melting point of 123 to 125 °C.

On to `Cc1oc(-c2ccccc2)nc1COc1ccc(COc2cc(CCC(=O)O)n(-c3ccccc3)n2)cc1`, for which the melting point lay within 154 to 155 °C.

Molecule `C=C(C)c1cc(-c2ccc(OCCNS(C)(=O)=O)cc2)n(-c2ccc(OC)nc2)n1` returned a melting point of 96 to 99 °C.

As for `CC1(C)Oc2ccc(S(=O)(=O)C(F)(F)C(F)(F)C(F)(F)F)cc2[C@@H](N2Cc3ccccc3C2=O)[C@@H]1O` (relative stereo), the melting point is 241 to 249 °C.

For the molecule `CC(C)(C)c1cc(C=C2CON(C(N)=O)C2=O)cc(C(C)(C)C)c1O`, the melting point was in the range of 178 to 181 °C.

On to `O=S(=O)(NCCSC1c2ccccc2COc2ccc(/C=C/c3ccc4cc(F)c(F)cc4n3)cc21)C(F)(F)F` (stereo not given), for which the melting point was 84 to 87 °C.

In turn, `O=C(O)COn1cccn1` registered a melting point of 99 °C.

`COc1ccc(C(=O)c2ccc(OCc3nc(-c4ccccc4)oc3C)cc2)c(OCCC(=O)O)c1` yielded a melting point of 142 to 143 °C.

Molecule `Cn1cc(C2=C(C3CCCCC3)C(=O)NC2=O)c2ccccc21` came in with a melting point of 224 to 225 °C.

On to `FCc1cccc(-c2ccc(-c3cn([C@H]4CN5CCC4CC5)nn3)s2)c1`, for which the melting point came to 144 °C.

For `CN(c1cccs1)c1n[nH]c2ncnc(Nc3cccc(Cl)c3)c12`, the melting point was 228 to 229 °C.

For the molecule `Cc1ccc(-c2cc(Br)c3[nH]c(=O)ccc3c2)c(C)n1`, the melting point lay in the range of 212 to 215 °C.

Molecule `COc1cc(N2CCCN(C)CC2)ccc1Nc1ncc2ccc(-c3ccccc3OC)n2n1` yielded a melting point of 69 to 77 °C.

Turning to `CS(=O)(=O)c1ccc(-c2cocc2-c2ccc(F)cc2)cc1`, the melting point was in the range of 160 to 161 °C.

Regarding `CCCCCCCNC(=O)Nc1ccc(N)cc1C(=O)NC1CCN(C(c2ccccc2)c2ccccc2)CC1`, the melting point lay in the range of 190 to 192 °C.

For the molecule `CC(C)(C)OC(=O)c1ncn2c1CN(C(=O)N1CCOCC1)c1cc(F)ccc1-2`, the melting point was 196 °C.

Consider `COC(=O)c1ccccc1COc1ccc(-c2cc(O)c(SCCc3ccccc3)c(=O)o2)cc1`, for which the melting point was 161 to 162 °C.

Molecule `O=C(NC(=O)C(c1ccccc1)c1ccccc1)OCCN1CCOCC1` registered a melting point of 135 to 137 °C.

Take `COc1cc2c(cc1OC)/C(=C\c1ccc(OCC(=O)OC(C)(C)C)cc1)C(=O)N2`: the melting point lay within 158 to 160 °C.

`CC(C)(C)OC(=O)COc1ccc(NC(=O)OCc2ccccc2)cc1` gave a melting point of 109 to 110 °C.

As for `COc1ccccc1-c1cn(N=Cc2ccccc2)c(N)n1`, the melting point is 166 to 167 °C.

Take `CCc1ncnc(N[C@H]2CC[C@@H](C(C)(C)O)CC2)c1Cl`: the melting point was in the range of 75 to 76 °C.

For the molecule `O=[N+]([O-])c1c(NCCCO)cccc1NCCCO`, the melting point is 90 °C.

As to `CCCCn1c(=O)c2c(NCC)n[nH]c2n(Cc2ccc(OC)cc2)c1=O`, the melting point was in the range of 234 to 236 °C.

`COc1ccc(/C(=C/C(=O)O)c2cc(C)cc(Cl)c2)cc1` gave a melting point of 190 to 192 °C.

`CC(C)(C)C(O)C(Cn1ccnc1)Oc1ccc(Cl)cc1` (stereo not given): the melting point fell in the range of 163 to 170 °C.

In the case of `Cc1ccc2nc3cc(C)c(=O)cc-3sc2c1`, the melting point was determined as 177 °C.

`CCCc1nn(-c2ccc(C(F)(F)F)cn2)cc1CO` gave a melting point of 120 to 121 °C.
